Test results from publication PMC12019328, “Discovery of an ApoE4-targeted small-molecule SirT1 enhancer for the treatment of Alzheimer’s disease” (Scientific Reports, 2025).
Converted amounts (≈) assume the structure as drawn.

Key:
[1] = system: SirT1 promoter; assay: ChIP analysis of SirT1 promoter occupancy in Kelly cells; assay type: cell-based, human; conditions: vs DMSO
Procedure: Correlations between gene mRNAs in DDL-214, -218, and -219-treated Kelly cells
As described in the main manuscript, human Kelly neuroblastoma cells were treated with
racemate DDL-214, and enantiomers DDL-218 and -219. Levels of PRMT5, NFYb, SirT1, and
PPP2r5e mRNAs were then determined. The correlations between these gene mRNAs for all
Data points are graphed by
treatment in Figure S6D-F and their significant correlation (Pearson correlation 0.914) in
bioinformatic analysis of gene co-expression of 2300 human brain RNAseq samples performed
at Genefriends.org (Raina, et al. (2022) GeneFriends: gene co-expression databases and tools
for humans and model organisms, Nucleic Acids Research, 2022;
Figure S6. Correlation of gene mRNA levels in DDL-treated Kelly cells. All data points are shown for (A)
PRMT5 vs. NFYb, (B) SirT1 vs. PRMT5, and (C) PPP2r5E vs. SirT1. R2 values are shown on the upper
right of each panel. (D-F) The same data with treatment (DDL-214, -218, or -219) indicated by symbols
shown below panel (E). The statistical 'r' value and significance determined by Pearsons Correlation
ChIP assay for SirT1 gene promoter occupancy by ApoE4 and RNA polymerase […]
promoter by ApoE4 or RNA Polymerase (RNAP) was determined using an EZ-ChIP kit (Millipore […]
DNA was purified. The immunoprecipitated DNA was measured for the level of immuno-captured […]

[2] = Kinetic solubility; assay type: physicochemical; conditions: aqueous buffer, kinetic from dmso stock, PBS pH 7.4, 37°C
Procedure: supernatants were transferred to new tubes and lyophilized. Samples were reconstituted in 100 µL of 50/50/0.1 (Water/Acetonitrile/Formic Acid) prior to analysis via liquid chromatography-tandem mass spectrometry (LC-MS/MS).
Normalized chromatographic peak areas was plotted at each time point and the half-life (T1/2) of compound in liver microsomes was determined by using the trendline equation to calculate the time at which compound abundance was 50% of that at timepoint 0 (T0).
Kinetic solubility was assessed by separately diluting a test compound solution (10 mM, 100% DMSO) into the aqueous buffer (PBS pH 7.4) and DMSO at 100 μM, 100 μL total volume.
The solutions were then incubated at 37°C for 90 min and centrifuged (16000xg, 5 min). An aliquot (50 µL) of each supernatant was analyzed by LC-MS/MS.
Five standard concentrations (100, 10, 1, 0.1, and 0, DMSO) in duplicates were incubated at 37°C for 90 min and centrifuged (16000xg, 5 min). Aliquots (50 µL) of supernatant were analyzed by LC-MS/MS to create the standard curve.
Table S2. DDL-218 Physiochemical Properties
Kinetic solubility (μM) 64.4
Brain Tissue Binding [fu,bound (%)] 43 […]

[3] = system: PPP2r5e mRNA in Kelly cells; assay: PPP2r5e mRNA in Kelly neuroblastoma cells; assay type: cell-based, human; conditions: 5 µM, 24 h, vs DMSO
Procedure: Human neuroblastoma ‘Kelly’ cells (genotype APOE3/APOE4) were plated in 96-well plates at 50K cells per well and were grown overnight in RPMI 1640 supplemented with 2 mM Glutamine, 10% FBS and 1% Pen-Strep. Cells were treated with 5 µM DDL-214, -218, or -219; or DMSO vehicle (n = 8 per compound). Twenty-four hours later, medium was removed, cells washed and lysed as described above for N2a-E4 cells.
Total RNA was isolated from cells or brain tissue (Qiagen RNEasy kit). Total RNA (0.5–1.0 µg) mRNA was then converted to cDNA (SuperScript™ III First-Strand Synthesis SuperMix kit; Thermo Fisher), and gene mRNA levels were measured using a gene-specific qRT-PCR Taqman assays (Thermo Fisher). Gene mRNA levels were normalized to GAPDH mRNA levels measured either in the same cDNA sample or in the same qPCR reaction using multiplexing of gene-of-interest/VIC and GAPDH/FAM, normalized by the delta-delta-Ct method.

## CC(N)C(=O)OC(C)(C)Cc1ccncc1 (stereo not shown) [DDL-218]
[1]
  ApoE4 binding to SirT1 promoter: lower, but the effect was not significant
  RNAP occupancy of SirT1 promoter: increased
[2]
  solubility kinetic at 90 min: 64.4 µM (≈ 14.3 µg/mL)
[3]
  PPP2r5e mRNA: significantly increased
